In one data set the test system is bovine serum albumin. Put plainly: Formation of fluorescent advanced glycosylation end products in albumin incubated with glucose. In kind it is biochemical. To be noted: 200 mM agent, 6 mg/mL BSA, 200 mM glucose, 37° C., two-week incubation, vs control. The protocol: To measure the ability of certain of the agents of the present invention to inhibit the production of advanced glycosylated end products in vitro, albumin and glucose were incubated together for two weeks in the presence of several test agents. Samples were taken at regular intervals for analysis. Advanced glycosylation end products were measured as appearance of fluorescent compounds, and early glycosylation products were measured by incorporation of radiolabeled glucose into albumin. Reaction conditions were as follows. […]
After the incubation periods, samples were treated as follows. After dialysis to remove all unbound glucose, the amount of protein present was measured with a standard dye-binding assay. The amount of glucose which became bound to the albumin, a measure of early glycosylation products, was determined by precipitating albumin with trichloroacetic acid and measuring the radioactivity of the bound glucose using scintillation counting.
The results of this experiment are expressed graphically in FIG. 1. For each sample, incorporation of radiolabeled glucose is indicated by the solid portion of the bar, and fluorescence is indicated in the open portion of the bar. All values are expressed as per milligram of albumin. […]

For another data set, the system named is gelatin (collagen). Put plainly: Protein trapping: radioiodinated albumin bound to gelatin (collagen) agarose beads with glucose-6-phosphate. In kind it is biochemical. To be noted: agent 200 mN, 400 mN glucose-6-phosphate, two weeks, 37° C. The text has this: To more precisely measure the effect of the agents on the inhibition of protein crosslinking, an assay system was devised to measure the extent of in vitro binding of a soluble protein to an insoluble protein. This assay system mimics the events which occur in tissues in which serum proteins become bound to proteins in extravascular matrix and which lead to accumulation of protein and narrowing of vessel lumina in several other tissues. These events in vivo give rise to kidney disease and atherosclerotic disease, and lead to the pathologies associated with diabetes and aging.
To measure protein trapping (i.e., binding or accumulation), gelatin (collagen) was coupled to activated agarose beads (Affigel 10, Bio-Red Laboratories) by routine methods. After coupling, all remaining active sites on the beads were quenched by reaction with glycine ethyl ester.
The beads were incubated for two weeks with bovine serum albumin and 400 mN glucose-6-phosphate, a more reactive form of glucose which forms early glycosylation products with proteins more rapidly than does glucose. […] The bovine serum albumin was radioiodinated so that the amount which became bound to the beads could be measured. […]
After a two-week incubation of the reaction mixtures at 37° C., the beads were washed extensively with chaotropic agents and the covalently bound radioactivity was determined. […]

The subject of a further data set is rats. To be noted: subcutaneously, rats; cited from earlier work.
The test system of a further data set is mice. To be noted: subcutaneously; cited from earlier work.
Data set [1] relates to demineralized bone matrix particles. Put plainly: Bone differentiation of AGE-modified demineralized bone matrix implanted in rats. The format is in vivo, rat. To be noted: matrix incubated with glycolaldehyde. The method, then:
In order to assess the possible role of hyperglycemia-induced matrix modifications in this process, demineralized bone matrix particles from 35 week old normal Long-Evans rats were prepared. Matrix is incubated in phosphate buffered saline alone (PBS), PBS containing various sugar precursors of AGE (PBS−G), and PBS with sugars plus the AGE-inhibitor aminoguanidine (PBS−G+AG). After incubation, the matrix is washed and implanted subcutaneously in normal rats. Twelve days after implantation, ^45CaCl2 is injected to determine implant mineralization, and alkaline phosphatase activity is measured to assess osteoblast function. Duplicate specimens are fixed, embedded and stained for histologic evaluation.

In the case of `NCCCC[C@H](N)C(=O)O` [Lysine, lysine], the “formation of fluorescent compounds (advanced glycosylation end products)” value in the data set with bovine serum albumin is “appeared to cause an increase in fluorescent compound formation”. Besides, the “amount of protein trapping (radiolabeled albumin bound to collagen beads)” value with gelatin (collagen) is on record as “reduced the amount of protein trapping to an extent similar to that of aminoguanidine”.
Take `N=C(N)NN` [aminoguanidine base, aminoguanidine]: the figures for the LD50 with rats and in the data set with mice were 1258 mg/kg and 963 mg/kg, respectively.
For `O=CCO` [glycolaldehyde, reference compound], in data set [1], the “matrix AGE content (by specific fluorescence), increase” value was “over twofold”. Also, the “inhibition of bone differentiation (45CaCl2 uptake, alk phos, histology)” value in data set [1] (implanted subcutaneously, 12 days) is given as “more than 90%”.

Values taken from patent US20020115724A1, “Methods and agents for inhibiting protein aging” (priority 1985, published 2002).
